The source of these data is publication PMC6769468, “Endogenous Neuropeptide Nocistatin Is a Direct Agonist of Acid-Sensing Ion Channels (ASIC1, ASIC2 and ASIC3)” (Biomolecules, 2019).

For test [1], the target named is T1, rat ASIC1a (Rattus norvegicus, UniProt P55926).
T1 construct: expressed in transfected cells; host or cells: Xenopus laevis oocytes (injected)
T1 sequence (P55926 1-526): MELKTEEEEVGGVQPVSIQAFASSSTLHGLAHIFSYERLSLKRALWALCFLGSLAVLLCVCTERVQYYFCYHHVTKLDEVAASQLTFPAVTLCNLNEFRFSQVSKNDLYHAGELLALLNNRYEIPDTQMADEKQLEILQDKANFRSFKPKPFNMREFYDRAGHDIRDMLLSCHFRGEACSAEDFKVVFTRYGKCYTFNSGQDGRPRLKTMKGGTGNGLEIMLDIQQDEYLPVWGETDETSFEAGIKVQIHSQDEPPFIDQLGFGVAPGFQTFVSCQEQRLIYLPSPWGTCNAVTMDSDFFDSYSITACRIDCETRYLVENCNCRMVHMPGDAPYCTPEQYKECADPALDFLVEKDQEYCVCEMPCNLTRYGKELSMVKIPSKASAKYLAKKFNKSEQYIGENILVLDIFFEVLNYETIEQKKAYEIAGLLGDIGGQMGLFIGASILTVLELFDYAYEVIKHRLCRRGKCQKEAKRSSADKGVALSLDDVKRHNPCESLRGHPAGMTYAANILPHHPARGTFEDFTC
The test is described as follows: Whole-cell current activation, rat ASIC1a in X. laevis oocytes. The test is classed as cell-based. Conditions: for ASIC1a current amplitude, % of control pH 5.5 stimulus: n = 4. Here is the method:
(§1) Oocytes expressed rASIC1a, rASIC1b, rASIC2a, and rASIC3 homomeric channels were prepared as described. Injected oocytes were kept for two–three days at 19 °C and then for up to seven days at 15 °C in ND-96 medium supplemented with gentamycin (50 μg·mL^−1) and containing (in mM): 96 NaCl, 2 KCl, 1.8 CaCl2, 1 MgCl2, and 10 HEPES titrated to pH 7.4 with NaOH. Electrophysiological recordings were performed using the GeneClamp500 amplifier (Axon Instruments, Inverurie, UK) at a holding potential of -50 mV. The data were filtered at 20 Hz and digitized at 100 Hz using the L780 AD converter (L-Card, Moscow, Russia). Microelectrodes were filled with 3 M KCl. The external bath solution was ND-96 with pH adjusted to 7.4/7.8 (10 mM HEPES) /8.5 (10 mM Tris). Nocistatin containing solutions were freshly prepared and buffered each experimental day in ND-96 bath solution (pH 7.4/7.8/8.5). Proton-activated currents through ASIC channels were elicited by application of ND-96, in which 10 mM of HEPES was substituted with 10 mM MES at pH 5.5/ 10 mM acetic acid at pH 4.5. The whole-cell recording was performed if a response to the control pH stimulus was stable in at least two replicates. Nocistatin-activated currents were elicited by application of nocistatin containing solutions with various concentrations of the peptide.
(§2) Extracellular solutions were applied using a computer-controlled valve system with a flow rate of 1 mL/min. The oocyte chamber volume was 80 µL. The validity of the application system for studying ASIC channels expressed in oocytes was confirmed in experiments by application of a Cl-free solution (containing (in mM): 130 NMDG, 1 MgGluc2, 2 KGluc, 5 HEPES) (pH 7.4). Fast application of proton/peptide-activating solution was performed at a flow rate of 1 mL/sec (the change of the bath solution occurred within 100 ms), followed by PC controlled flow stopping (from 5 to 15 s).
Analysis of electrophysiological data was performed using OriginPro 8.6 software (OriginLab, Northampton, MA, USA). Curves were fitted using different logistic equations:
(a) Usual logistic equation [33] F1(x) = A – A/(1 + (x/x0)^nH), where F1(x) is the current amplitude at nocistatin concentration x ([x]) (response at concentration x), A is the maximal current amplitude (or the maximum asymptote or the stabilized response for an infinite concentration), x0 is the value of [x] at which the function reach half their maximum value (the EC50 value), and nH is the Hill coefficient (slope factor or a level of cooperativity);
(b) Equation for the model of unequal sites occupation F2(x) = A/(1 + (x/EC501)^nH)*(1 + (x/EC502)), multiplication of two logistic equations where F2(x) is the current amplitude at nocistatin concentration x, A is the maximal current amplitude, [EC501] is the half-maximal concentration of nocistatin binding to pool of “cooperative” sites (or 0.5 probability of “cooperative” sites’ occupancy) and [EC502] is the half-maximal concentration of nocistatin binding to additional unequal site (or 0.5 probability of single site occupancy), and nH is the Hill coefficient (slope factor) for the pool of cooperative sites;
(d) The time course of curves’ decay was fitted using a mono-exponential equation: F4(x) = A1*e^(-x/τdes) + A0, where F4(x) is the current amplitude at the time point x, A1 is the maximal current amplitude, A0 is its steady-state value and τdes is the […].
(§3) All data are presented as mean ± SEM. The significance of normalized data differences was determined with a non-parametric Kruskal-Wallis ANOVA test with the significance level * p < 0.05 and ** p < 0.01; ns, non-significant.

In test [2] the target is T1, rat ASIC1a. As to the kind of experiment: Inhibition of pH 5.5-induced ASIC1a current following rNS action. The test is classed as cell-based. Here is the method: as §1, §2
(c) Generalized logistic differential equation (the four-parameter logistic nonlinear regression model or a Hill function) F3(x) = ((A1 – A2)/(1 + (x/x0)^nH)) + A2, where F3(x) is the response value at a given nocistatin concentration, x is the concentration of nocistatin; A1 is the control response value (fixed at 100%) or the minimum asymptote of the response when concentration = 0; A2 is the response value at maximal inhibition or the maximum asymptote or the stabilized response for an infinite concentration (% of control), x0 is the concentration at which 50% of the channels are expected to show the response (or the response halfway between the minimum response asymptote A1 and the maximum response asymptote A2) (IC50 value) and nH is the Hill coefficient (a level of cooperativity). The maximum amplitude (Imax) was calculated for each oocyte by individual fitting; the data were normalized to it, then the normalized data were averaged and fitted by the logistic equations F1(x) and F2(x).
as §3

Where [3] appears, read: amplitude of pH 5.5-induced current, F3, n = 5.
Setting [4] is: pH 5.5 stimulus after 0.125–0.5 mM nocistatin pretreatment, n = 5.

Ends that are not written are not given here.

Take “MPRVRSVVQARDAEPEADAEPVADEADEVEQKQLQ [rNS]”: on rat ASIC1a [1] (1 mM nocistatin, conditioning pH 7.4), the “ASIC1a current amplitude, % of control pH 5.5 stimulus” value (“ASIC1a current amplitude, %” for short) is 95.5 ± 1.8%. In addition, on rat ASIC1a [1] (1 mM nocistatin, conditioning pH 7.8), the “ASIC1a current amplitude, %” value is listed as 89.5 ± 2.8%. The “ASIC1a current amplitude, %” value at rat ASIC1a [1] (1 mM nocistatin, conditioning pH 8.5) is given as 86.7 ± 2.5%. For the same sequence, the “Maximal activating effect versus response to a pH drop of 7.4–5.5” value on rat ASIC1a [1] (1 mM nocistatin, extracellular pH 7.4) is “comparable to the response to a pH drop of 7.4–5.5”. In addition, on rat ASIC1a [1] (1 mM rNS vs pH drop 7.4–5.5), the “Acurrent, nocistatin versus protons” value was “did not differ between protons and nocistatin”; the “tmax, nocistatin versus protons” value was “no differences”. In addition, the “τdes (desensitization time constant)” value at rat ASIC1a [1] (1 mM rNS, conditioning pH 7.4, mono-exponential fit, mean ± S.E. from 4–7 measurements) worked out at 1.4 ± 0.1 s. Besides, on rat ASIC1a [1] (integral current, equation F2, n = 5), the “Hill coefficient (nH), integral current activation” value is 4.8 ± 0.7. Besides, the “Hill coefficient (nH) of activation” value on rat ASIC1a [1] (peak amplitude, pH 7.4, equation F2, n = 5) stood at 7.44 ± 0.95. For the same sequence, the “Reduction of the 1st versus the 2nd component of the current” value on rat ASIC1a [2] (IC50 comparison) is “reduced the 1st component of the current twice as effectively”. On rat ASIC1a [2] (setting [3]), the “nH of inhibition, 1st component” value was found to be 3.5 ± 0.4 and the “nH of inhibition, 2nd component” value is recorded as 1.9 ± 0.2. Besides, the “nH, integral current inhibition” value at rat ASIC1a [2] (integral of pH 5.5-induced current after nocistatin, F3) was determined as 2.9 ± 0.4. This sequence yielded an IC50 on rat ASIC1a [2] (integral of pH 5.5-induced current after nocistatin, F3 (fitted much worse than amplitude)) of 150 ± 20 µM. For the same sequence, at rat ASIC1a [2] (low concentrations, Figure 2d and S2B), the “Concentration at which nocistatin acts as an inhibitor” value is not above 0.2 mM. At rat ASIC1a [2] (setting [4]), the “tmax1, 1st component of proton-induced current” value stood at 495 ± 85 ms and the “tmax2, 2nd component of proton-induced current” value stood at 1415 ± 112 ms.

Usually IC50 stands for the concentration that gives 50% inhibition. A lower IC50 goes with inhibition by little substance.
